Data taken from patent publication US8466089B2, “Pyrazole compounds, process for their production and herbicides containing them” (Ishihara Sangyo Kaisha, Ltd., priority 2008, dated 2013).
Read-outs that look alike come from different tables or passages of the source.

How the values were obtained:
Format in all cases: in vivo
[1] = tested on: sorgo (Sorghum bicolor Moench) (var.: Lucky Sorgo); experiment: Test Example 6, soil column downward movement, sorgo bioassay; settings: 14th day after sowing
Method: Soil (sterilized soil:sand=3:1) was packed (4 L) into a column (9.5 cm in diameter×40 cm in height, application area: 0.007 m^2), and tap water was dropped from above by a Peristaltic pump before application of the herbicide for the purpose of maintaining the soil moisture to be uniform. Then, 10 mL of a spray solution prepared so that each agent (Compound No. 2-1, the above Reference Compounds 1 and 2) would be at a concentration corresponding to 250 g/ha was dropwise applied by a pipette. After application, water was dropped again at a rate of 400 mL/hr for about 3 hours by means of a Peristaltic pump. After the dropping, the column was left to stand for 1 day, and then the column was vertically evenly divided and seeds of sorgo (Sorghum bicolor Moench) (var.: Lucky Sorgo) were sown in a row. On the 14th day after sowing, the state of growth of the plant was visually observed at 3 cm intervals from the application point of the agent, whereby the germination and the degree of growth were evaluated by a growth inhibition rate (%) of 0 (equivalent to the non-treated area) to 100% (complete kill) to obtain the results in Table 17.
From the above results, the growth inhibition rates of Reference Compounds No. 1 and No. 2 are observed in depths deeper than that of Compound No. 2-1. […] Whereas, Compound No. 2-1 stayed at a shallow portion of soil (in a layer of from 0 to 9 cm).

[2] = tested on: green foxtail (Setaria viridis L.); experiment: Test Example 5, foliar treatment versus Reference Compounds; settings: 5.0 to 5.5 leaf stage, 18th day after application, read-out: Growth inhibition rate (%) (18th day after application) Green foxtail
Source text: (§1) Upland field soil was put into a 1/1,000,000 hectare pot, and seeds of various plants were sown. When the respective plants reached predetermined leaf stage ((1) velvetleaf (Abutilon theophrasti MEDIC.): 3.0 to 3.5 leaf stage, (2) giant foxtail (Setaria faberi Herrm.): 4.0 to 4.5 leaf stage, (3) green foxtail (Setaria viridis L.): 5.0 to 5.5 leaf stage, and (4) corn (Zea mays L.): 4.0 to 4.3 leaf stage, a wettable powder of compound No. 2-1 of the above-mentioned present invention, a wettable powder of the above-mentioned Reference Compound 1 and a wettable powder of the above-mentioned Reference Compound 2, prepared in accordance with a conventional preparation method, were weighed so that the active ingredients became the prescribed amounts, and diluted with water in an amount corresponding to 300 liter per 1 hectare (containing 0.5 vol % of an agricultural spreader (Destiny HC: WINFIELD SOLUTIONS by LLC). The spray solutions thus prepared were applied for foliar treatment by a small sprayer.
(§2) On the 7th to 20th day after application, the state of growth of the respective plants was visually observed, and the herbicidal effect was evaluated by a growth inhibition rate (%) of 0 (equivalent to the non-treated area) to 100% (complete kill).

[3] = tested on: velvetleaf (Abutilon theophrasti MEDIC.); experiment: as above; settings: 3.0 to 3.5 leaf stage, 20th day after application, read-out: Growth inhibition rate (%) (20th day after application) Velvet leaf
Source text: as §1, §2

corn (Zea mays L.) = experiment: as above; settings: 4.0 to 4.3 leaf stage, 7th day after application, read-out: Growth inhibition rate (%) (7th day after application) Corn
Source text: as §1, §2

[4] = tested on: giant foxtail (Setaria faberi Herrm.); experiment: as above; settings: 4.0 to 4.5 leaf stage, 20th day after application, read-out: Growth inhibition rate (%) (20th day after application) Giant foxtail
Source text: as §1, §2

COCCOc1c(S(C)(=O)=O)ccc(C(=O)c2cnn(C(C)C)c2O)c1Cl [Reference Compound 2]
inhibition at 250 g/ha ([1]; depth 0-3 cm, read-out: Growth inhibition rate (%) against sorgo, Depth (cm) from the applied surface 0-3): 48% | inhibition at 250 g/ha ([1]; depth 3-6 cm, read-out: Growth inhibition rate (%) against sorgo, Depth (cm) from the applied surface 3-6): 45% | inhibition at 250 g/ha ([1]; depth 6-9 cm, read-out: Growth inhibition rate (%) against sorgo, Depth (cm) from the applied surface 6-9): 47% | inhibition at 250 g/ha ([1]; depth 9-12 cm, read-out: Growth inhibition rate (%) against sorgo, Depth (cm) from the applied surface 9-12): 43% | inhibition at 250 g/ha ([1]; depth 12-15 cm, read-out: Growth inhibition rate (%) against sorgo, Depth (cm) from the applied surface 12-15): 58% | inhibition at 250 g/ha ([1]; depth 15-18 cm, read-out: Growth inhibition rate (%) against sorgo, Depth (cm) from the applied surface 15-18): 55% | inhibition at 250 g/ha ([1]; depth 18-21 cm, read-out: Growth inhibition rate (%) against sorgo, Depth (cm) from the applied surface 18-21): 61% | inhibition at 250 g/ha ([1]; depth 21-24 cm, read-out: Growth inhibition rate (%) against sorgo, Depth (cm) from the applied surface 21-24): 63% | inhibition at 250 g/ha ([1]; depth 24-27 cm, read-out: Growth inhibition rate (%) against sorgo, Depth (cm) from the applied surface 24-27): 35% | inhibition at 250 g/ha ([1]; depth 27-30 cm, read-out: Growth inhibition rate (%) against sorgo, Depth (cm) from the applied surface 27-30): 8% | inhibition at 7 g/ha [2]: 35% | inhibition at 3.5 g/ha [3]: 50% | inhibition at 90 g/ha (corn (Zea mays L.)): 25% | inhibition at 3.5 g/ha [4]: 0%
